Measured values as given in publication PMC2774688, “Cellular Ser/Thr-Kinase Assays Using Generic Peptide Substrates” (Current Chemical Genomics, 2008).

Experiments:
[1] = tested on: B-Raf(V600E)-Ba/F3 cell line; assay: B-Raf(V600E)-Ba/F3 proliferation assay (Cell-Titer-Glo); type: cell-based; conditions: 384-well, called historical data, SD in parentheses (n=4-6)
Experimental: The B-Raf(V600E)-Ba/F3 cell line was generously provided by Markus Warmuth (GNF). Ba/F3 cells were counted and diluted to a final concentration of 75,000 cells/ml in RPMI media and 50μl/well were plated into 384-well white solid bottom plates. 50nl of a 10mM compound stock in DMSO were pintool transferred followed by a 48h incubation time at 37°C for 48h. Finally, 25μl Cell-Titer-Glo (Promega) detection reagent was added each and luminescence read were taken on a […] (Molecular Devices Corp.) reader.

[2] = biological target: T1, B-Raf(V600E) (Homo sapiens, UniProt P15056, V600E); assay: B-Raf(V600E)/MEK1(KD) cellular TR-FRET assay (double stable HEK293 T-Rex cells); type: cell-based; conditions: for IC50: B-Raf(V600E) TR-FRET, kinase-inactive MEK(KD) substrate, 384-well, ~2h compound treatment, SD in parentheses (n=4-6)
T1 construct: Full-length B-Raf wild-type (WT) and B-Raf(V600E) (NM_004333) cDNAs were subcloned from pcDNA3.1 into pcDNA5TO; expressed in transfected cells
T1 sequence (P15056 whole entry V600E): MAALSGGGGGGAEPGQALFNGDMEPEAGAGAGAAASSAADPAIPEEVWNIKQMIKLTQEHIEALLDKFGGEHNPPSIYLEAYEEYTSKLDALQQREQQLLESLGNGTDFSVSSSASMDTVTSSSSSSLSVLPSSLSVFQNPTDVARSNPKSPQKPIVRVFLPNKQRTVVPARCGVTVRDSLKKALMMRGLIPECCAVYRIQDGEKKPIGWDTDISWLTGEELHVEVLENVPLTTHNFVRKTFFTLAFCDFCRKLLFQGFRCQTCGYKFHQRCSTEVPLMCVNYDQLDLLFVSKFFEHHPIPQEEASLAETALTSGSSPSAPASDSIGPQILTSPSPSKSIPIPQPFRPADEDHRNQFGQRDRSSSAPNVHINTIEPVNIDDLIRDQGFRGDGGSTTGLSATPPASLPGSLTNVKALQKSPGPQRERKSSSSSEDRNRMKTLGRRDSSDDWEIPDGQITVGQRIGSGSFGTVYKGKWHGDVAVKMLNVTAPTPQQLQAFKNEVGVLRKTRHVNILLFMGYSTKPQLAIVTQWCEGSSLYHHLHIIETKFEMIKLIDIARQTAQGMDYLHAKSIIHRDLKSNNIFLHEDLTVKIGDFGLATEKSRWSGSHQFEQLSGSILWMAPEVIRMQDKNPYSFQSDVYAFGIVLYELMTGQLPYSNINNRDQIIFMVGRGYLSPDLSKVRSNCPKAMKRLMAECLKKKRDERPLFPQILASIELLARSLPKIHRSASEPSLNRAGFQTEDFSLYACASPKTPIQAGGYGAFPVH

[3] = biological target: T1, B-Raf(V600E); assay: B-Raf(V600E)/cSTKpep-3 cellular TR-FRET assay (double stable HEK293 T-Rex cells); type: cell-based; conditions: cSTKpep-3 substrate, ~2h compound treatment, SD in parentheses (n=4-6); for IC50: 384-well
[4] = biological target: T2, AKT (Homo sapiens, UniProt P31749); assay: AKT/cSTKpep-3 cellular TR-FRET assay (transient, HEK293); type: cell-based; conditions: Fig. 7C; comparable potencies in both assays
T2 construct: expressed in transfected cells; host or cells: HEK293 (transient co-transfection)
T2 sequence (P31749 whole entry): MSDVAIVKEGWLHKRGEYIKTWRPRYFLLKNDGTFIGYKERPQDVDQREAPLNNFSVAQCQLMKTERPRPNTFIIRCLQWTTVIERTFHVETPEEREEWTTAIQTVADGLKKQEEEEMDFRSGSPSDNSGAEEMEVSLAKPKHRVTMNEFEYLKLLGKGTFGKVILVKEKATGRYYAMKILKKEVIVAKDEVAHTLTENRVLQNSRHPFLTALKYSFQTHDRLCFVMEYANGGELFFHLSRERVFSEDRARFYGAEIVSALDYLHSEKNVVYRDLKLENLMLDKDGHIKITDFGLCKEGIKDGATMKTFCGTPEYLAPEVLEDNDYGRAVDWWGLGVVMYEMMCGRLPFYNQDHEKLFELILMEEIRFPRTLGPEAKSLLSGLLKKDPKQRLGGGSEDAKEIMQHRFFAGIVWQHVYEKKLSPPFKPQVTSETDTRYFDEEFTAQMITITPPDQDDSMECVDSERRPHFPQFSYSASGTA

[5] = biological target: T1, B-Raf(V600E); assay: B-Raf(V600E)/MEK1(WT) cellular TR-FRET assay (double stable HEK293 T-Rex cells); type: cell-based; conditions: MEK(WT) substrate, ~2h compound treatment, SD in parentheses (n=4-6); for IC50: 384-well
[6] = tested on: AKT activation (Ser473 phosphorylation); assay: p-AKT(Ser473) cellular TR-FRET assay with His-tagged AKT (HEK293); type: cell-based, human; conditions: for observed potency (concentration range), AKT phosphorylation assay: Fig. 7B, comparable potencies in both assays
[7] = tested on: CamK2δ; assay: CamK2δ/cSTKpep-1 cellular TR-FRET assay (transient, HEK 293); type: cell-based; conditions: 5min ionomycin treatment (1µM)
Experimental: HEK293 cells were transfected using Fugene 6 (Roche) at a density of 8000 cells/well in 384-well plates and a final transfection volume of 30μl. The amounts of kinase and substrate plasmids per well varied for each experiment and are specified in the figure legends. Cell lysis and detection of phosphorylated or total substrate levels was performed 48h post transfection by addition of 30μl detection buffer (50 mM Hepes pH 7.2, 0.1% BSA, 20mM EDTA, 0.8M KF, and 2% Triton) containing anti-FLAG XL665 (2ng/ul) and Eu-pSTK (0.18ng/μl) or Eu-pMEK1 (0.24ng/μl). For the relative determination of total substrate levels 30μl detection buffer was added per well containing anti-FLAG XL665 (2ng/μl) and Eu-cMyc (0.3ng/μl). Plates were incubated for 3-6h at room temperature and TR-FRET readings taken on Acquest, Analyst GT (Molecular Devices Corp.), Envision or Viewlux (Perkin Elmer) plate readers. […]
Fig. (8). Induction of CamK2δ activity. Transient transfection reactions were performed in 384-well plates as indicated. HEK 293 were reverse transfected with 50ng CamK2δ and 50ng (black bars) or 25ng (gray bars) cSTKpep-1. CamK2δ activity was induced through 5min ionomycin treatment (1µM) and p-cSTKpep-1 was quantified by TR-FRET.

| Structure (SMILES) | IC50 [2] [µM] | IC50 [3] [µM] | IC50 cSTKpep-3 384-well [3] | observed potency (concentration range), cSTKpep-3 phosphorylation assay [4] | IC50 [5] [µM] | IC50 MEK(WT) 384-well [5] | observed potency (concentration range), AKT phosphorylation assay [6] | further results |
| --- | --- | --- | --- | --- | --- | --- | --- | --- |
| O=c1cc(N2CCOCC2)oc2c(-c3ccccc3)cccc12 [LY294002, 2-(4-morpholinyl)-8-phenyl-4H-1-benzopyran-4-one] | > 33 | > 33 | did not show any activity | low micromolar | > 33 | did not show any activity | low micromolar | – |
| O=C(NOC[C@H](O)CO)c1ccc(F)c(F)c1Nc1ccc(I)cc1F [PD0325901] | – | – | – | – | – | – | – | IC50 MEK(KD) 384-well [2]: inactive; IC50 ([1]; Mus musculus, BaF3, 48h): […] |
| CN[C@@H]1C[C@H]2O[C@@](C)([C@@H]1OC)n1c3ccccc3c3c4c(c5c6ccccc6n2c5c31)C(=O)NC4 [Staurosporine] | – | – | – | – | – | – | – | factor between activity on p-AKT versus p-cSTKpep-3 ([6]; p-AKT IC50 versus p-cSTKpep-3 IC50): ~ 100 fold |
| COC[C@H]1OC(=O)c2coc3c2[C@@]1(C)C1=C(C3=O)[C@@H]2CCC(=O)[C@@]2(C)C[C@H]1OC(C)=O [Wortmannin] | > 33 | > 33 | did not show any activity | low nanomolar | > 33 | did not show any activity | low nanomolar | – |
| C[C@H](CCC(=O)O)C[C@H](C)C[C@H](C)C(=O)/C=C(\O)[C@H](C)C[C@H](C)C/C=C/[C@@H](C)[C@@H](O)[C@@H](C)[C@@H](O)C[C@@H]1CC[C@@](C)([C@H]2CC[C@@](C)([C@@H](C)O)O2)O1 [ionomycin] | – | – | – | – | – | – | – | induction of CamK2δ activity / cSTKpep-1 phosphorylation [7]: ionomycin inducible |
